Values belong to the compound of their own block, whether it stands above or below them. Active and inactive are the calls of the source. No cut-off for these calls is given here.
Tests used:
Rattus norvegicus [1] = organism: Rattus norvegicus; assay: In vitro inhibition of [1-14C]palmitate oxidation in rat hemidiaphragms; Inactive; format: functional
Rattus norvegicus [2] = assay: Rat glucose tolerance in vivo expressed as minimum effective dose (MED), it is the lowest dose giving a statistically significant (p<0.05) lowering at any time point; Inactive; format: functional, organism-based
Rattus norvegicus [3] = assay: Rat glucose tolerance test was determined in vivo at 100 mg/kg perorally; Inactive; format: functional, organism-based; set-up: dose 100 mg/kg
[4] = molecular target: T1, Carnitine O-palmitoyltransferase 1, liver isoform (Rattus norvegicus, UniProt P32198); assay: Inhibition of carnitine palmitoyl transferase (CPT), assessed with isolated rat liver mitochondria; Inactive
T1 sequence (P32198 whole entry): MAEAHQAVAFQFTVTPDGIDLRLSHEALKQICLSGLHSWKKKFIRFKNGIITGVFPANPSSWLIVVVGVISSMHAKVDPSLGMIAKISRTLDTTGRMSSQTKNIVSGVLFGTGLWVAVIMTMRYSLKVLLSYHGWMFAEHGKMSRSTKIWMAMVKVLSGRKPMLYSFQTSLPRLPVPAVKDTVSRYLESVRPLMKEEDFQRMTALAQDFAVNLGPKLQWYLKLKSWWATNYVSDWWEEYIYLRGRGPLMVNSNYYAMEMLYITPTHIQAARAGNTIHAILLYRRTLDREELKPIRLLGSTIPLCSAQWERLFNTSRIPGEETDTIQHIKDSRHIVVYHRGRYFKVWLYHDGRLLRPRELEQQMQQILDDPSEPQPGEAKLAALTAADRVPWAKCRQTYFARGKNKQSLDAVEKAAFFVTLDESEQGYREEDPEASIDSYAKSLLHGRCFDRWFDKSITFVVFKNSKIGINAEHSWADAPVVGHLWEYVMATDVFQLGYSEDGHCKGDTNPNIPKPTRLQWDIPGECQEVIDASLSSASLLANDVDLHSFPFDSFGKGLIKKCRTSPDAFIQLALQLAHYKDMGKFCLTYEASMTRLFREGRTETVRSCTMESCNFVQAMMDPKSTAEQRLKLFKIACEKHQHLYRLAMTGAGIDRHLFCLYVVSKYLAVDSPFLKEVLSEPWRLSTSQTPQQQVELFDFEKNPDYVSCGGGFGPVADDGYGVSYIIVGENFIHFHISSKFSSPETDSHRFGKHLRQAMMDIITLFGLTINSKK

[5] = molecular target: T1, Carnitine O-palmitoyltransferase 1, liver isoform; assay: Inhibition of carnitine palmitoyl transferase (CPT), assessed with isolated rat liver mitochondria
Rattus norvegicus [6] = organism: Rattus norvegicus; assay: In vitro inhibition of [1-14C]palmitate oxidation in rat hemidiaphragms; format: functional
Rattus norvegicus [7] = assay: Rat glucose tolerance in vivo expressed as minimum effective dose (MED), it is the lowest dose giving a statistically significant (p<0.05) lowering at any time point; format: functional; settings: read-out: MED
Rattus norvegicus [8] = assay: Rat glucose tolerance test was determined in vivo at 100 mg/kg perorally; format: functional; settings: route oral
Rattus norvegicus [9] = assay: Rat glucose tolerance test was determined in vivo at 75 mg/kg perorally; format: functional; settings: route oral
Rattus norvegicus [10] = assay: Rat glucose tolerance test was determined in vivo at 10 mg/kg perorally; format: functional; settings: route oral

IC50 (Rattus norvegicus [1]): Not Active | IC50 [4]: Not Active
SMILES: CCCCCCCCCCCCCC[C@@]1(C(=O)O)CO1
MED (Rattus norvegicus [2]): inactive | Lowering (Rattus norvegicus [3]): inactive

IC50 [5]: 30 nM
SMILES: CCCCCCCCCCCCCCC1(C(=O)SCCNC(=O)CCNC(=O)C(O)C(C)(C)COP(=O)(O)OP(=O)(O)OC[C@H]2O[C@@H](n3cnc4c(N)ncnc43)[C@H](O)[C@@H]2OP(=O)(O)O)CO1 (mixture of isomers)

IC50 [4]: Not Active
SMILES: CCCCCCCCCCCCCC[C@@]1(C(=O)SCCNC(=O)CCNC(=O)C(O)C(C)(C)COP(=O)(O)OP(=O)(O)OC[C@H]2O[C@@H](n3cnc4c(N)ncnc43)[C@H](O)[C@@H]2OP(=O)(O)O)CO1 (some centres undefined)

IC50 (Rattus norvegicus [6]): 2200 nM | IC50 [5]: 40 nM
SMILES: CCCCCCCCCCCCCCC1(C(=O)O)CO1 (racemic) [PALMOXIRATE]
minimal effective dose (Rattus norvegicus [7]): 5 mg/kg | Lowering (Rattus norvegicus [8]): 53%

IC50 [5]: 90 nM
SMILES: CCCCCCCCCCCCCCC1(C(=O)OC)CO1 (racemic) [METHYL PALMOXIRATE]
minimal effective dose (Rattus norvegicus [7]): 2 mg/kg | Lowering (Rattus norvegicus [9]): 45%

IC50 [5]: 40 nM
SMILES: CCCCCCCCCCCCCC[C@]1(C(=O)OC)CO1

IC50 (Rattus norvegicus [6]): 1200 nM | IC50 [5]: 30 nM
SMILES: CCCCCCCCCCCCCC[C@]1(C(=O)O)CO1
minimal effective dose (Rattus norvegicus [7]): 5 mg/kg | Lowering (Rattus norvegicus [10]): 25%

IC50 [5]: 20 nM
SMILES: CCCCCCCCCCCCCC[C@]1(C(=O)SCCNC(=O)CCNC(=O)C(O)C(C)(C)COP(=O)(O)OP(=O)(O)OC[C@H]2O[C@@H](n3cnc4c(N)ncnc43)[C@H](O)[C@@H]2OP(=O)(O)O)CO1 (some centres undefined)
